Nine compounds from patent publication US20260070945A1, “MACROCYCLIC IMMUNOMODULATORS” (Bristol-Myers Squibb Company, priority 2022, published 2026) can be followed below.

Usually IC50 stands for the concentration needed to halve the response being measured.

Each structure is given as a SMILES string. Where a SMILES comes first, the peptide text is derived from it. Bridges are numbered along the chain shown (N, C = ends). [ ]: non-standard residue; d: D form. The star is where a group is joined. ξ: configuration not given here. Bip = N[C@@H](Cc1ccc(-c2ccccc2)cc1)C(=O)O; Phe(3-Me) = Cc1cccc(C[C@H](N)C(=O)O)c1; Cyclopropanecarbonyl = O=C(C1CC1)*; hArg = N=C(N)NCCCC[C@H](N)C(=O)O; 4Pal = N[C@@H](Cc1ccncc1)C(=O)O; Cha = N[C@@H](CC1CCCCC1)C(=O)O; Cit = NC(=O)NCCC[C@H](N)C(=O)O; Thr(3ξ) = CC(O)[C@H](N)C(=O)O; 12Ado = NCCCCCCCCCCCC(=O)O; Carboxymethyl = O=C(O)C*; NMeA = CN[C@@H](C)C(=O)O; Orn = NCCC[C@H](N)C(=O)O; Aun = NCCCCCCCCCCC(=O)O; Dab = NCC[C@H](N)C(=O)O; Dap = NC[C@H](N)C(=O)O; X12 = CC(C)(F)C(=O)*

For the experiment, the target named is T1, PD-1/PD-L1 interaction (PE-labeled human PD-L1-Ig binding to Jurkat cell line over-expressing human PD-1) (Homo sapiens, UniProt Q15116).
T1 construct: expressed in transfected cells; host or cells: Jurkat
T1 sequence (Q15116 25-288): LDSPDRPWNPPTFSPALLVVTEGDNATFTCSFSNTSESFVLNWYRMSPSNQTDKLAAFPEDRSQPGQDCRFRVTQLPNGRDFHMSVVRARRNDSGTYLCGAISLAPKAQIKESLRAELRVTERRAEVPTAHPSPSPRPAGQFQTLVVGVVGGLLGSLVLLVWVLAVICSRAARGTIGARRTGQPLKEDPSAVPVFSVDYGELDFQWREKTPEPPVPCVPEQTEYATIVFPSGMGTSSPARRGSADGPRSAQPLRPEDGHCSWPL
Put plainly: Jurkat-PD-1 Cell Binding High-Content Screening Assay (CBA). The following applies: Jurkat-hPD-1 cells, PE-labeled PD-L1-Ig 20 nM final; read-out: Jurkat HPD1 PDL1 IC50. Summed up: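 High-content imaging read-out of PE-PD-L1-Ig binding (20 nM final, 1 h) to Jurkat-hPD-1 cells, after 2 h compound exposure at 37 °C in DMEM with 10% FCS. Nuclei counterstained with Hoechst 33342 after paraformaldehyde fixation.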
As to `Cc1cccc(C[C@@H]2NC(=O)[C@H](CC(=O)O)NC(=O)[C@H](Cc3ccc(OCC(=O)O)cc3)NC(=O)[C@H](CCCCNC(=N)N)NC(=O)CSC[C@@H](C(=O)N[C@@H](CCN)C(=O)NCCCCCCCCCCC(=O)O)NC(=O)[C@H](C(C)O)NC(=O)[C@H](C(C)C)NC(=O)[C@H](CC3CCCCC3)NC(=O)[C@H](CCN)NC(=O)[C@@H](CC(C)C)NC(=O)[C@H](C)N(C)C(=O)[C@H](CCCCNC(=O)C3CC3)NC(=O)[C@H](Cc3ccc(-c4ccccc4)cc3)NC(=O)[C@H](Cc3ccc(O)cc3)NC2=O)c1` (stereo partly drawn) [Example 2399] ({CH2CO}-[hArg]Y(Carboxymethyl)D[Phe(3-Me)]Y[Bip]K(Cyclopropanecarbonyl)[NMeA][dL][Dab][Cha]V[Thr(3ξ)]C[Dab][Aun]-OH; thioether N-14), the IC50 amounted to 14.1 nM.

In the case of `Cc1cccc(C[C@@H]2NC(=O)[C@H](CC(=O)O)NC(=O)[C@H](Cc3ccc(OCC(=O)O)cc3)NC(=O)[C@H](CCCNC(=O)C3CC3)NC(=O)CSC[C@@H](C(=O)N[C@@H](CCN)C(=O)NCCCCCCCCCCC(=O)O)NC(=O)[C@H](C(C)O)NC(=O)[C@H](C(C)C)NC(=O)[C@H](CC3CCCCC3)NC(=O)[C@H](CCN)NC(=O)[C@@H](CC(C)C)NC(=O)[C@H](C)N(C)C(=O)[C@H](CCCNC(N)=O)NC(=O)[C@H](Cc3ccc(-c4ccccc4)cc3)NC(=O)[C@H](Cc3ccc(O)cc3)NC2=O)c1` (stereo partly drawn) [Example 2400] ({CH2CO}-[Orn](Cyclopropanecarbonyl)Y(Carboxymethyl)D[Phe(3-Me)]Y[Bip][Cit][NMeA][dL][Dab][Cha]V[Thr(3ξ)]C[Dab][Aun]-OH; thioether N-14), the IC50 was 11 nM. Next, `Cc1cccc(C[C@@H]2NC(=O)[C@H](CC(=O)O)NC(=O)[C@H](Cc3ccc(OCC(=O)O)cc3)NC(=O)[C@H](CCCNC(=O)C(C)(C)F)NC(=O)CSC[C@@H](C(=O)N[C@@H](CCCN)C(=O)N[C@@H](CO)C(=O)NCCCCCCCCCCCC(=O)O)NC(=O)[C@H](C(C)O)NC(=O)[C@H](C(C)C)NC(=O)[C@H](CC3CCCCC3)NC(=O)[C@H](CCN)NC(=O)[C@@H](CC(C)C)NC(=O)[C@H](C)N(C)C(=O)[C@H](CCCNC(N)=O)NC(=O)[C@H](Cc3ccc(-c4ccccc4)cc3)NC(=O)[C@H](Cc3ccc(O)cc3)NC2=O)c1` (stereo partly drawn) [Example 2401] ({CH2CO}-[Orn](X12)Y(Carboxymethyl)D[Phe(3-Me)]Y[Bip][Cit][NMeA][dL][Dab][Cha]V[Thr(3ξ)]C[Orn]S[12Ado]-OH; thioether N-14): 94.4 nM; `Cc1cccc(C[C@@H]2NC(=O)[C@H](CC(=O)O)NC(=O)[C@H](Cc3ccc(OCC(=O)O)cc3)NC(=O)[C@H](CN)NC(=O)CSC[C@@H](C(=O)N[C@@H](CCCN)C(=O)N[C@@H](CO)C(=O)NCCCCCCCCCCCC(=O)O)NC(=O)[C@H](C(C)O)NC(=O)[C@H](C(C)C)NC(=O)[C@H](CC3CCCCC3)NC(=O)[C@H](CCN)NC(=O)[C@@H](CC(C)C)NC(=O)[C@H](C)N(C)C(=O)[C@H](CCCNC(N)=O)NC(=O)[C@H](Cc3ccc(-c4ccccc4)cc3)NC(=O)[C@H](Cc3ccc(O)cc3)NC2=O)c1` (stereo partly drawn) [Example 2402] ({CH2CO}-[Dap]Y(Carboxymethyl)D[Phe(3-Me)]Y[Bip][Cit][NMeA][dL][Dab][Cha]V[Thr(3ξ)]C[Orn]S[12Ado]-OH; thioether N-14): 51.7 nM. `Cc1cccc(C[C@@H]2NC(=O)[C@H](CC(=O)O)NC(=O)[C@H](Cc3ccc(OCC(=O)O)cc3)NC(=O)[C@H](Cc3ccncc3)NC(=O)CSC[C@@H](C(=O)N[C@@H](CCCN)C(=O)N[C@@H](CO)C(=O)NCCCCCCCCCCCC(=O)O)NC(=O)[C@H](C(C)O)NC(=O)[C@H](C(C)C)NC(=O)[C@H](CC3CCCCC3)NC(=O)[C@H](CCN)NC(=O)[C@@H](CC(C)C)NC(=O)[C@H](C)N(C)C(=O)[C@H](CCCNC(=O)C3CC3)NC(=O)[C@H](Cc3ccc(-c4ccccc4)cc3)NC(=O)[C@H](Cc3ccc(O)cc3)NC2=O)c1` (stereo partly drawn) [Example 2403] ({CH2CO}-[4Pal]Y(Carboxymethyl)D[Phe(3-Me)]Y[Bip][Orn](Cyclopropanecarbonyl)[NMeA][dL][Dab][Cha]V[Thr(3ξ)]C[Orn]S[12Ado]-OH; thioether N-14): the IC50 is 47.9 nM.

Turning to `Cc1cccc(C[C@@H]2NC(=O)[C@H](CC(=O)O)NC(=O)[C@H](Cc3ccc(OCC(=O)O)cc3)NC(=O)[C@H](Cc3ccncc3)NC(=O)CSC[C@@H](C(=O)N[C@@H](CCCN)C(=O)N[C@@H](CO)C(=O)NCCCCCCCCCCCC(=O)O)NC(=O)[C@H](C(C)O)NC(=O)[C@H](C(C)C)NC(=O)[C@H](CC3CCCCC3)NC(=O)[C@H](CCN)NC(=O)[C@@H](CC(C)C)NC(=O)[C@H](C)N(C)C(=O)[C@H](CCCCNC(=O)C3CC3)NC(=O)[C@H](Cc3ccc(-c4ccccc4)cc3)NC(=O)[C@H](Cc3ccc(O)cc3)NC2=O)c1` (stereo partly drawn) [Example 2404] ({CH2CO}-[4Pal]Y(Carboxymethyl)D[Phe(3-Me)]Y[Bip]K(Cyclopropanecarbonyl)[NMeA][dL][Dab][Cha]V[Thr(3ξ)]C[Orn]S[12Ado]-OH; thioether N-14), the IC50 came out at 40.9 nM.

In the case of `CC(=O)NCCCC[C@@H]1NC(=O)[C@H](Cc2ccc(-c3ccccc3)cc2)NC(=O)[C@H](C(C)C)NC(=O)[C@H](Cc2c[nH]c3ccccc23)NC(=O)[C@H](CC(=O)O)NC(=O)[C@H](Cc2ccc(OCC(=O)O)cc2)NC(=O)[C@H](C(C)O)NC(=O)CSC[C@@H](C(=O)N[C@@H](CCCN)C(=O)N[C@@H](CO)C(=O)NCCCCCCCCCCCC(=O)O)NC(=O)[C@H](C(C)O)NC(=O)[C@H](C(C)C)NC(=O)[C@H](CC2CCCCC2)NC(=O)[C@H](CCN)NC(=O)[C@@H](CC(C)C)NC(=O)[C@H](C)N(C)C1=O` (stereo partly drawn) [Example 2405] ({CH2CO}-[Thr(3ξ)]Y(Carboxymethyl)DWV[Bip]K(Ac)[NMeA][dL][Dab][Cha]V[Thr(3ξ)]C[Orn]S[12Ado]-OH; thioether N-14), the IC50 was found to be 75.3 nM. In the case of `CC(=O)NCCCC[C@@H]1NC(=O)[C@H](Cc2ccc(-c3ccccc3)cc2)NC(=O)[C@H](C(C)C)NC(=O)[C@H](Cc2c[nH]c3ccccc23)NC(=O)[C@H](CC(=O)O)NC(=O)[C@H](Cc2ccc(OCC(=O)O)cc2)NC(=O)[C@H](C(C)O)NC(=O)CSC[C@@H](C(=O)N[C@@H](CCCN)C(=O)N[C@@H](CO)C(=O)NCCCCCCCCCCCC(=O)O)NC(=O)[C@H](CCCN)NC(=O)[C@H](C(C)C)NC(=O)[C@H](CC2CCCCC2)NC(=O)[C@H](CCN)NC(=O)[C@@H](CC(C)C)NC(=O)[C@H](C)N(C)C1=O` (stereo partly drawn) [Example 2406] ({CH2CO}-[Thr(3ξ)]Y(Carboxymethyl)DWV[Bip]K(Ac)[NMeA][dL][Dab][Cha]V[Orn]C[Orn]S[12Ado]-OH; thioether N-14), the IC50 was determined as 159 nM. As to `CC(=O)NCCCC[C@@H]1NC(=O)[C@H](Cc2ccc(-c3ccccc3)cc2)NC(=O)[C@H](C(C)C)NC(=O)[C@H](Cc2c[nH]c3ccccc23)NC(=O)[C@H](CC(=O)O)NC(=O)[C@H](Cc2ccc(OCC(=O)O)cc2)NC(=O)[C@H](CN)NC(=O)CSC[C@@H](C(=O)N[C@@H](CCCN)C(=O)N[C@@H](CO)C(=O)NCCCCCCCCCCCC(=O)O)NC(=O)[C@H](C(C)O)NC(=O)[C@H](C(C)C)NC(=O)[C@H](CC2CCCCC2)NC(=O)[C@H](CCN)NC(=O)[C@@H](CC(C)C)NC(=O)[C@H](C)N(C)C1=O` (stereo partly drawn) [Example 2407] ({CH2CO}-[Dap]Y(Carboxymethyl)DWV[Bip]K(Ac)[NMeA][dL][Dab][Cha]V[Thr(3ξ)]C[Orn]S[12Ado]-OH; thioether N-14), the IC50 stood at 66.1 nM.
